Where two headings read alike, the source gives them in different places.
What was measured:
pluripotent macrophages [1] = assay: in vitro differentiation of monocytes-derived pluripotent macrophages into neuronal-like cells; conditions: for effect on cells of increased concentration or number of doses: concentration increased above the recommended ones, or number of doses increased
Protocol: (§1) Isolated monocytes were centrifuged and resuspended in DMEM/10% FBS at a concentration of 550 cells/ml. M-CSF (Macrophage colony-stimulating factor) was added to resuspended cells at a concentration of 1:2000 with a stock solution at 0.1 mg/ml.
(§2) 1.2 million monocytes were plated per each 9.6 cm^2 well of a 6-well plate, 550,000 monocytes per each 3.1 cm^2 well of a 12-well plate, and 6 million monocytes per each 25 cm^2 flask. To ensure that monocytes became confluent and evenly distributed, and thus maintained a good differentiation rate, flasks and plates remained horizontal throughout the protocol, plating was done slowly by gently releasing monocytes from the pipette. Plated cells were left at room temperature for at least 15 min so that cells became fully attached to the surface of the plates or flasks, and subsequently incubated at 37° C. with 5% CO2 until day 4.
(§3) Once the tubes of steps e) and f) were at 37° C., the growth factor BHA (butylated hydroxyanizole) was added to the culture medium of monocytes at a final concentration of 50 nM, as follows: • g) adding 10 μl of 100 mM BHA (0.0089 grams of BHA+500 μL ethanol) to the 10 ml of DMEM/10% FBS of step e), thereby obtaining a 100 μM BHA/DMEM solution. Then diluting 10 μl of this 100 μM solution with a further 10 ml of DMEM/10% FBS heated at 37° C., thereby obtaining a 100 nM BHA/DMEM solution; • h) discarding the medium of the 6- and 12-well plates containing the monocytes isolated from the same subject as the PBMCs of step b); • i) adding the BHA/DMEM solution and the conditioned medium to each well of the plates in a 1:1 ratio, i.e.: • 1.5 ml of the 100 nM BHA/DMEM of step g) and 1.5 ml of the PBMCs conditioned medium of step f), for each well of a 6-well plate, and • 1 ml of the 100 nM BHA/DMEM of step g) and 1 ml of the PBMCs conditioned medium of step f), for each well of a 12-well plate; • j) incubating the plates at 37° C. with 5% CO2 until day 10. […]

pluripotent macrophages [2] = tested on: pluripotent macrophages
Protocol: as §1, §2, §3

Molecule	effect on cells of increased concentration or number of doses (pluripotent macrophages [1])	further results
COc1ccc(O)c(C(C)(C)C)c1 [BHA, Butylated hydroxyanisole]	damaged the cells	–
IGF-2: Insulin growth factor-2, exogenous factor tested as replacement	–	cell viability (pluripotent macrophages [1]; replacing IGF-1 by this factor): did not improve cell viability
IGF-1: Recombinant human Insulin Growth Factor-1 (Peprotech)	–	effect on cells of increased concentration or number of doses (pluripotent macrophages [2]): damaged the cells
CC1=C(/C=C/C(C)=C/C=C/C(C)=C/C(=O)O)C(C)(C)CCC1 [RA, Retinoic Acid]	damaged the cells	–
